# In patent publication US20060252740A1 (priority 2005, published 2006):
# Experiment: clinical
# Experimental: PK assessments included the following tests. […] The total number of PK samples collected was approximately 115 mL of whole blood (7-8 tablespoons). If a patient experienced a potentially drug-related SAE, additional PK samples were collected. Blood was drawn from the contralateral arm to the infusion site using an indwelling catheter to avoid multiple needle sticks. […] The blood tube was inverted several times and the tube placed in wet ice immediately pending separation of the plasma. If a catheter was used for blood collection, the fluid in the catheter was completely withdrawn prior to each sample collection and discarded. Plasma samples were kept on wet ice during collection and centrifugation. Plasma samples were split into two cryovials prior to freezing at −70° C.
# [1] = Cohorts 3 & 4, 17-AAG 150 mg/m^2, Max
# [2] = Cohorts 3 & 4, 17-AAG 150 mg/m^2, Mean
# [3] = Cohorts 3 & 4, 17-AAG 150 mg/m^2, Median
# [4] = Cohorts 3 & 4, 17-AAG 150 mg/m^2, Min
smiles,measurement,setting,value
"C=CCNC1=C2C[C@@H](C)C[C@H](OC)[C@H](O)[C@@H](C)/C=C(\C)[C@H](OC(N)=O)[C@@H](OC)/C=C\C=C(/C)C(=O)NC(=CC1=O)C2=O [17-AAG, 17-Allylamino-17-demethoxygeldanamycin]",Tmax,[1],2.17 h
same,t1/2,[1],5.7 h
same,AUCext,[2],5%
same,AUCtotal,[2],"6,030 ng/mL * h"
same,Clearance,[2],28.94 L/h/m^2
same,Vss,[2],80.89 L/m^2
same,Vz,[2],94.79 L/m^2
same,AUCext,[3],3.8%
same,AUCtotal,[3],"5,071 ng/mL * h"
same,Clearance,[3],29.6 L/h/m^2
same,Vss,[3],84.3 L/m^2
same,Vz,[3],93.7 L/m^2
same,AUCext,[4],0.9%
same,AUCextra,[4],54 ng·h/mL
same,AUClast,[4],"3,152 ng/mL * h"
same,AUCtotal,[4],"3,294 ng/mL * h"
same,Cmax,[4],"1,830 ng/mL"
same,MRT,[4],1.5 h
same,Tmax,[4],0.5 h
same,t1/2,[4],1.6 h
same,Total systemic clearance,cohorts 1-4 combined,28.83±8.51 L/h/m^2
same,distributive volume VSS,cohorts 1-4 combined,85.25±31.60 L/m^2
same,distributive volume VZ,cohorts 1-4 combined,98.05±36.41 L/m^2
same,Clearance,"human, in vivo, 100 mg/m2",924 mL/min
same,Vd,"human, in vivo, 100 mg/m2, Vss, Cohorts 1 & 2, 17-AAG 100 mg/m^2, Median",159 L
same,half-life,"human, in vivo, 150 mg/m2",2.2 h
same,Vd,"human, in vivo, 150 mg/m2, Vss, Cohorts 3 & 4, 17-AAG 150 mg/m^2, Mean",143 L
same,Vd,"human, in vivo, 150 mg/m2, Vz, Cohorts 3 & 4, 17-AAG 150 mg/m^2, Median",172 L
same,Vd,"human, in vivo, distributive volume VZ, cohorts 1-4 combined",175 ± 68.2 L
same,AUC,"human, plasma, intravenous, 100 mg/m2, AUCextra, Cohorts 1 & 2, 17-AAG 100 mg/m^2, Mean",225 ng·h/mL
same,AUC,"human, plasma, intravenous, 100 mg/m2, AUCextra, Cohorts 1 & 2, 17-AAG 100 mg/m^2, Median",166 ng·h/mL
same,AUC(0-t),"human, plasma, intravenous, 100 mg/m2, AUClast, Cohorts 1 & 2, 17-AAG 100 mg/m^2, Mean",3580 ng·h/mL
same,AUC(0-t),"human, plasma, intravenous, 100 mg/m2, AUClast, Cohorts 1 & 2, 17-AAG 100 mg/m^2, Median",3350 ng·h/mL
same,Clearance,"human, plasma, intravenous, 100 mg/m2, Clearance, Cohorts 1 & 2, 17-AAG 100 mg/m^2, Mean",879 mL/min
same,Cmax,"human, plasma, intravenous, 100 mg/m2, Cmax, Cohorts 1 & 2, 17-AAG 100 mg/m^2, Mean",1790 ng/mL
same,Cmax,"human, plasma, intravenous, 100 mg/m2, Cmax, Cohorts 1 & 2, 17-AAG 100 mg/m^2, Median",1740 ng/mL
same,MRT,"human, plasma, intravenous, 100 mg/m2, MRT, Cohorts 1 & 2, 17-AAG 100 mg/m^2, Mean",3.32 h
same,MRT,"human, plasma, intravenous, 100 mg/m2, MRT, Cohorts 1 & 2, 17-AAG 100 mg/m^2, Median",2.89 h
same,Tmax,"human, plasma, intravenous, 100 mg/m2, Tmax, Cohorts 1 & 2, 17-AAG 100 mg/m^2, Mean",1 h
same,Tmax,"human, plasma, intravenous, 100 mg/m2, Tmax, Cohorts 1 & 2, 17-AAG 100 mg/m^2, Median",1 h
same,Vd,"human, plasma, intravenous, 100 mg/m2, Vss, Cohorts 1 & 2, 17-AAG 100 mg/m^2, Mean",174 L
same,Vd,"human, plasma, intravenous, 100 mg/m2, Vz, Cohorts 1 & 2, 17-AAG 100 mg/m^2, Mean",193 L
same,Vd,"human, plasma, intravenous, 100 mg/m2, Vz, Cohorts 1 & 2, 17-AAG 100 mg/m^2, Median",188 L
same,half-life,"human, plasma, intravenous, 100 mg/m2, t1/2, Cohorts 1 & 2, 17-AAG 100 mg/m^2, Mean",2.49 h
same,half-life,"human, plasma, intravenous, 100 mg/m2, t1/2, Cohorts 1 & 2, 17-AAG 100 mg/m^2, Median",2.29 h
same,AUC,"human, plasma, intravenous, 150 mg/m2, AUCextra, Cohorts 3 & 4, 17-AAG 150 mg/m^2, Mean",256 ng·h/mL
same,AUC,"human, plasma, intravenous, 150 mg/m2, AUCextra, Cohorts 3 & 4, 17-AAG 150 mg/m^2, Median",199 ng·h/mL
same,AUC(0-t),"human, plasma, intravenous, 150 mg/m2, AUClast, Cohorts 3 & 4, 17-AAG 150 mg/m^2, Mean",5770 ng·h/mL
same,AUC(0-t),"human, plasma, intravenous, 150 mg/m2, AUClast, Cohorts 3 & 4, 17-AAG 150 mg/m^2, Median",4870 ng·h/mL
same,Clearance,"human, plasma, intravenous, 150 mg/m2, Clearance, Cohorts 3 & 4, 17-AAG 150 mg/m^2, Mean",850 mL/min
same,Clearance,"human, plasma, intravenous, 150 mg/m2, Clearance, Cohorts 3 & 4, 17-AAG 150 mg/m^2, Median",843 mL/min
same,Cmax,"human, plasma, intravenous, 150 mg/m2, Cmax, Cohorts 3 & 4, 17-AAG 150 mg/m^2, Mean",3470 ng/mL
same,Cmax,"human, plasma, intravenous, 150 mg/m2, Cmax, Cohorts 3 & 4, 17-AAG 150 mg/m^2, Median",2740 ng/mL
same,MRT,"human, plasma, intravenous, 150 mg/m2, MRT, Cohorts 3 & 4, 17-AAG 150 mg/m^2, Mean",2.89 h
same,MRT,"human, plasma, intravenous, 150 mg/m2, MRT, Cohorts 3 & 4, 17-AAG 150 mg/m^2, Median",2.9 h
same,Tmax,"human, plasma, intravenous, 150 mg/m2, Tmax, Cohorts 3 & 4, 17-AAG 150 mg/m^2, Mean",1 h
same,Tmax,"human, plasma, intravenous, 150 mg/m2, Tmax, Cohorts 3 & 4, 17-AAG 150 mg/m^2, Median",0.97 h
same,Vd,"human, plasma, intravenous, 150 mg/m2, Vss, Cohorts 3 & 4, 17-AAG 150 mg/m^2, Median",151 L
same,Vd,"human, plasma, intravenous, 150 mg/m2, Vz, Cohorts 3 & 4, 17-AAG 150 mg/m^2, Mean",166 L
same,half-life,"human, plasma, intravenous, 150 mg/m2, t1/2, Cohorts 3 & 4, 17-AAG 150 mg/m^2, Mean",2.4 h
same,half-life,"human, plasma, intravenous, Terminal elimination half-life, cohorts 1-4 combined",2.43 ± 0.9 h
same,Clearance,"human, plasma, intravenous, Total systemic clearance, cohorts 1-4 combined",860 mL/min
same,Vd,"human, plasma, intravenous, distributive volume VSS, cohorts 1-4 combined",153 ± 62.3 L
